Reference: PubChem BioAssay (NCI)
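Interpolation was linear, between the two tested concentrations surrounding the appropriate level; five concentrations were tested over 48 hours in 96-well plates. At the TGI there is no net growth.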

Assays:
Test in all cases: DTP human tumour cell line panel, 48 h
786-0 renal = system: 786-0 renal
A498 renal = system: A498 renal
A549 NSCLC = system: A549 NSCLC
ACHN renal = system: ACHN renal
BT-549 breast = system: BT-549 breast
CAKI-1 renal = system: CAKI-1 renal
COLO 205 colon = system: COLO 205 colon
DU-145 prostate = system: DU-145 prostate
EKVX NSCLC = system: EKVX NSCLC
HCC-2998 colon = system: HCC-2998 colon
HCT-116 colon = system: HCT-116 colon
HCT-15 colon = system: HCT-15 colon
HOP-62 NSCLC = system: HOP-62 NSCLC
HOP-92 NSCLC = system: HOP-92 NSCLC
HS 578T breast = system: HS 578T breast
IGROV1 ovarian = system: IGROV1 ovarian
K-562 leukemia = system: K-562 leukemia
KM12 colon = system: KM12 colon
LOX IMVI melanoma = system: LOX IMVI melanoma
M14 melanoma = system: M14 melanoma
MALME-3M melanoma = system: MALME-3M melanoma
MCF7 breast = system: MCF7 breast
MDA-MB-231 breast = system: MDA-MB-231 breast
MDA-MB-435 = system: MDA-MB-435
MDA-N = system: MDA-N
MOLT-4 leukemia = system: MOLT-4 leukemia
NCI-H226 lung = system: NCI-H226 lung
NCI-H23 lung = system: NCI-H23 lung
NCI-H460 lung = system: NCI-H460 lung
NCI-H522 lung = system: NCI-H522 lung
NCI/ADR-RES ovarian = system: NCI/ADR-RES ovarian
OVCAR-3 ovarian = system: OVCAR-3 ovarian
OVCAR-4 ovarian = system: OVCAR-4 ovarian
OVCAR-5 ovarian = system: OVCAR-5 ovarian
OVCAR-8 ovarian = system: OVCAR-8 ovarian
PC-3 prostate = system: PC-3 prostate
RPMI-8226 leukemia = system: RPMI-8226 leukemia
SF-295 CNS = system: SF-295 CNS
SK-MEL-2 melanoma = system: SK-MEL-2 melanoma
SK-MEL-28 melanoma = system: SK-MEL-28 melanoma
SK-MEL-5 melanoma = system: SK-MEL-5 melanoma
SK-OV-3 ovarian = system: SK-OV-3 ovarian
SN12C renal = system: SN12C renal
SNB-19 CNS = system: SNB-19 CNS
SNB-75 CNS = system: SNB-75 CNS
SR leukemia = system: SR leukemia
SW-620 colon = system: SW-620 colon
TK-10 renal = system: TK-10 renal
U251 CNS = system: U251 CNS
UACC-257 melanoma = system: UACC-257 melanoma
UACC-62 melanoma = system: UACC-62 melanoma
UO-31 renal = system: UO-31 renal
CCRF-CEM leukemia = system: CCRF-CEM leukemia
HT29 colon = system: HT29 colon
RXF 393 renal = system: RXF 393 renal
SF-268 CNS = system: SF-268 CNS
T-47D breast = system: T-47D breast

CCC[C@H](O)[C@@H](CNc1cc(NC(C)=O)nc(NC(C)=O)n1)N(Cc1ccccc1)Cc1ccccc1
TGI (786-0 renal): 38.6 µM
TGI (A498 renal): > 100 µM
TGI (A549 NSCLC): 72.1 µM
TGI (ACHN renal): 56.8 µM
TGI (BT-549 breast): 35.9 µM
TGI (CAKI-1 renal): 38.5 µM
TGI (COLO 205 colon): > 100 µM
TGI (DU-145 prostate): > 100 µM
TGI (EKVX NSCLC): 45.3 µM
TGI (HCC-2998 colon): > 100 µM
TGI (HCT-116 colon): 54.1 µM
TGI (HCT-15 colon): > 100 µM
TGI (HOP-62 NSCLC): 36.2 µM
TGI (HOP-92 NSCLC): > 100 µM
TGI (HS 578T breast): > 100 µM
TGI (IGROV1 ovarian): 50.9 µM
TGI (K-562 leukemia): > 100 µM
TGI (KM12 colon): 39.1 µM
TGI (LOX IMVI melanoma): > 100 µM
TGI (M14 melanoma): > 100 µM
TGI (MALME-3M melanoma): > 100 µM
TGI (MCF7 breast): 25.8 µM
TGI (MDA-MB-231 breast): > 100 µM
TGI (MDA-MB-435): > 100 µM
TGI (MDA-N): > 100 µM
TGI (MOLT-4 leukemia): > 100 µM
TGI (NCI-H226 lung): 33.1 µM
TGI (NCI-H23 lung): 58.4 µM
TGI (NCI-H460 lung): > 100 µM
TGI (NCI-H522 lung): 27.2 µM
TGI (NCI/ADR-RES ovarian): 73.3 µM
TGI (OVCAR-3 ovarian): 55.6 µM
TGI (OVCAR-4 ovarian): > 100 µM
TGI (OVCAR-5 ovarian): > 100 µM
TGI (OVCAR-8 ovarian): 35.1 µM
TGI (PC-3 prostate): 33.5 µM
TGI (RPMI-8226 leukemia): > 100 µM
TGI (SF-295 CNS): 25.5 µM
TGI (SK-MEL-2 melanoma): > 100 µM
TGI (SK-MEL-28 melanoma): > 100 µM
TGI (SK-MEL-5 melanoma): > 100 µM
TGI (SK-OV-3 ovarian): 63.4 µM
TGI (SN12C renal): > 100 µM
TGI (SNB-19 CNS): > 100 µM
TGI (SNB-75 CNS): 34.8 µM
TGI (SR leukemia): > 100 µM
TGI (SW-620 colon): > 100 µM
TGI (TK-10 renal): 45.1 µM
TGI (U251 CNS): > 100 µM
TGI (UACC-257 melanoma): > 100 µM
TGI (UACC-62 melanoma): 57 µM
TGI (UO-31 renal): 48.6 µM

O=[N+]([O-])c1ccc(N=Nc2c(O)ccc3cc(S(=O)(=O)O)ccc23)cc1
TGI (786-0 renal): > 100 µM
TGI (A498 renal): > 100 µM
TGI (A549 NSCLC): > 100 µM
TGI (ACHN renal): > 100 µM
TGI (BT-549 breast): > 100 µM
TGI (CAKI-1 renal): > 100 µM
TGI (CCRF-CEM leukemia): > 100 µM
TGI (COLO 205 colon): > 100 µM
TGI (DU-145 prostate): > 100 µM
TGI (EKVX NSCLC): > 100 µM
TGI (HCT-116 colon): > 100 µM
TGI (HCT-15 colon): > 100 µM
TGI (HOP-62 NSCLC): > 100 µM
TGI (HOP-92 NSCLC): > 100 µM
TGI (HS 578T breast): > 100 µM
TGI (HT29 colon): > 100 µM
TGI (IGROV1 ovarian): > 100 µM
TGI (K-562 leukemia): > 100 µM
TGI (KM12 colon): > 100 µM
TGI (LOX IMVI melanoma): > 100 µM
TGI (M14 melanoma): > 100 µM
TGI (MALME-3M melanoma): > 100 µM
TGI (MDA-MB-231 breast): > 100 µM
TGI (MDA-MB-435): > 100 µM
TGI (MDA-N): > 100 µM
TGI (MOLT-4 leukemia): > 100 µM
TGI (NCI-H23 lung): > 100 µM
TGI (NCI-H522 lung): > 100 µM
TGI (NCI/ADR-RES ovarian): > 100 µM
TGI (OVCAR-3 ovarian): > 100 µM
TGI (OVCAR-4 ovarian): > 100 µM
TGI (OVCAR-5 ovarian): > 100 µM
TGI (OVCAR-8 ovarian): > 100 µM
TGI (PC-3 prostate): > 100 µM
TGI (RPMI-8226 leukemia): > 100 µM
TGI (RXF 393 renal): > 100 µM
TGI (SF-268 CNS): > 100 µM
TGI (SF-295 CNS): > 100 µM
TGI (SK-MEL-2 melanoma): > 100 µM
TGI (SK-MEL-28 melanoma): > 100 µM
TGI (SK-MEL-5 melanoma): > 100 µM
TGI (SK-OV-3 ovarian): > 100 µM
TGI (SN12C renal): > 100 µM
TGI (SNB-19 CNS): > 100 µM
TGI (SNB-75 CNS): > 100 µM
TGI (SW-620 colon): > 100 µM
TGI (T-47D breast): > 100 µM
TGI (TK-10 renal): > 100 µM
TGI (U251 CNS): > 100 µM
TGI (UACC-257 melanoma): > 100 µM
TGI (UACC-62 melanoma): > 100 µM
TGI (UO-31 renal): > 100 µM
